Where no end group is shown, it is not given here.
How the values were obtained:
[1] = biological target: T1, IAPP (Homo sapiens, UniProt P10997); test: Kinetic assay of IAPP fibre formation (ThT fluorescence), in solution or catalysed by LUVs; format: biochemical; details: 10 μM IAPP, 630 μM LUVs, IAPP:small molecule 1:1
T1 construct: purchased Genscript; Elim Biopharmaceuticals
T1 sequence (P10997 34-70 limits assumed): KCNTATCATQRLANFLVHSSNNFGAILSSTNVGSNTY
Protocol: Unless otherwise stated, LUVs used in this work were prepared from a 1:1 mixture of DOPG/DOPC. The lyophilized mixture was hydrated in 100 mM KCl, 50 mM sodium phosphate, and pH 7.4 for 20 minutes. A 20 mg/mL solution of lipid in buffer was passed 21 times through a polycarbonate membrane (pore diameter=100 nm).
Amyloid reactions were conducted in buffer containing liposome (630 μM lipid) and 20 μM ThT in a black 96-well plate. This was followed by addition of small molecule dissolved in DMSO (final DMSO concentration=0.5%, v/v). […] The final volume in each well was 200 μL. Kinetics of fibrillation was monitored by ThT fluorescence (Ex 450 nm and Em 485 nm) using a FluoDia T70 fluorescence plate reader (Photon Technology International, Edison, NJ, USA). […] Each kinetic trace was fit to a sigmoidal form:

[2] = test system: INS-1 cells; test: Cell viability (Cell-Titer Blue), IAPP induced toxicity and rescue; format: cell-based, rat; details: 13 μM IAPP; for rescue of IAPP induced toxicity, co-addition: 1:1 IAPP:ligand co-added, 48 h
Protocol: Rat insulinoma INS-1 cells (832/13, Dr. Gary W. Cline, Department of Internal Medicine, Yale University) were cultured at 37° C. and 5% CO2 in phenol red free RPMI 1640 media supplemented with 10% fetal bovine serum, 1% penicillin/streptomycin (Life Technologies, Carlsbad, CA, USA), and 2% INS-1 stock solution (500 mM HEPES, 100 mM L-glutamine, 100 mM sodium pyruvate, and 2.5 mM β-mercaptoethanol). Cells were passaged upon reaching ˜95% confluence (0.25% Trypsin-EDTA, Life Technologies), propagated, and/or used in experiments. Cells used in experiments were pelleted and resuspended in fresh media with no Trypsin-EDTA.
Cell viability was measured colourimetrically using the Cell-Titer Blue (CTB, Promega, Madison, WI, USA) fluorescence-based assay. Cells were plated at a density 5000 cells/well in 96-well plates (BD Biosciences, San Diego, CA). Peptide was directly introduced to each well after 48 h of culture and then further incubated for an additional 48 h. For time dependent experiments, cells were incubated with peptide for the specified time points. After the incubation period, 20 μL CTB reagent was added to each well and incubated at 37° C. and 5% CO2 for 2.5-3.5 h. Fluorescence of the resorufin product was measured on a FluoDia T70 fluorescence plate reader (Photon Technology International, Birmingham, NJ, USA). All wells included the same amount of water to account for different concentrations of peptide added to sample wells. Wells that included water vehicle but not peptide served as the negative control (0% toxic), and wells containing 10% DMSO were the positive control (100% toxic). Percent toxicity was calculated using the following equation: […]
Each independent variable is the average of eight plate replicates from the negative control (<N>), positive control (<P>), and samples (<S>). Results presented for viability experiments are an average of three such experiments conducted independently on different days. Error bars represent the standard error of the mean.

[3] = test system: Src and its homologue, Abl; details: background statement; cited from earlier work
[4] = biological target: T2, IAPP20-29 (Homo sapiens, UniProt P10997); test: Amyloid assembly kinetics of the 10-residue peptide IAPP20-29; format: biochemical; details: 200 μM IAPP20-29
T2 construct: the 10-residue sub-peptide, IAPP20-29
Protocol: Amyloid reactions were conducted in buffer containing liposome (630 μM lipid) and 20 μM ThT in a black 96-well plate. This was followed by addition of small molecule dissolved in DMSO (final DMSO concentration=0.5%, v/v). Fibre formation was initiated by addition of IAPP stock solution. The final volume in each well was 200 μL. Kinetics of fibrillation was monitored by ThT fluorescence (Ex 450 nm and Em 485 nm) using a FluoDia T70 fluorescence plate reader (Photon Technology International, Edison, NJ, USA). The data were blank subtracted and renormalized to the maximum intensity of reactions containing only IAPP. Each kinetic trace was fit to a sigmoidal form:
[formula] where I is the fluorescence intensity, t is time, and b, m, and r are dependent fitting variables. All samples were run at least in triplicate and error bars shown in the text represent ±one standard deviation. Transmission Electron Microscopy

COC(=O)c1cc(OCC(=O)O)c2cccc(NC(=O)c3cc(OCC(=O)O)c4cccc(NC(=O)c5cc(OCC(=O)O)c6cccc(NC(=O)c7cc(OCC(=O)O)c8cccc(NC(=O)c9cc(OCC(=O)O)c%10cccc([N+](=O)[O-])c%10n9)c8n7)c6n5)c4n3)c2c1 [ADM-118]
inhibition of liposome catalysed fibrillation, t50 relative to control [1]: 3.3±0.1 fold

O=C(O[C@@H]1Cc2c(O)cc(O)cc2O[C@@H]1c1cc(O)c(O)c(O)c1)c1cc(O)c(O)c(O)c1 [EGCG]
rescue of IAPP induced toxicity, co-addition [2]: ineffective in rescuing toxicity
effect on liposome catalysed fibrillation [1]: no detectable effect

Cc1ccc(NC(=O)c2ccc(CN3CCN(C)CC3)cc2)cc1Nc1nccc(-c2cccnc2)n1 [Gleevec]
difference in binding affinity between Src and Abl [3]: > 1,000 fold

Oc1ccc(C=Cc2cc(O)cc(O)c2)cc1 [resveratrol]
rescue of IAPP induced toxicity, co-addition [2]: ineffective in rescuing toxicity
effect on liposome catalysed fibrillation [1]: no detectable effect

IAPP20-29: 10-residue sub-peptide of IAPP, residues 20-29 (SNNFGAILSS; Islet amyloid polypeptide; UniProt P10997 53-62, looked up, fragment)
t50 of amyloid formation [4]: 6.6 ± 0.3 h

IAPP: 37-residue, C-terminally amidated human islet amyloid polypeptide (SEQ ID NO:1) (KCNTATCATQRLANFLVHSSNNFGAILSSTNVGSNTY-NH2; cysteine pairing not given here)
decrease of INS-1 viability ([2]; 48 h incubation): 78±8%

acid fuchsin
rescue of IAPP induced toxicity, co-addition [2]: ineffective in rescuing toxicity
effect on liposome catalysed fibrillation [1]: no detectable effect

From US12336987B2, “Quinoline amides and methods of using same” (YALE UNIVERSITY, priority 2015, dated 2025)
